Source: ChEMBL document CHEMBL1921731, “Novel antileukemic agents derived from tamibarotene and nitric oxide donors” (Bioorg Med Chem Lett, 2011)

Key:
[1] = Induction of NO release from L-cysteine in phosphate buffer at pH 7.4 at 0.4 mM after 3 hrs by Griess assay; assay type: physicochemical; settings: pH 7.4, 3 h, 400 µM
HL-60 [2] = experiment: Antiproliferative activity against human HL60 cells after 48 hrs by MTT assay; assay type: functional, cell-based; settings: HL-60, 48 h
NB-4 [3] = experiment: Antiproliferative activity against human NB4 cells after 48 hrs by MTT assay; assay type: functional, cell-based; settings: NB-4, 48 h
K562 [4] = experiment: Antiproliferative activity against human K562 cells after 48 hrs by MTT assay; assay type: functional, cell-based; settings: K562, 48 h
HL-60 [5] = experiment: Ratio of tamibarotene IC50 to compound IC50 for human HL60 cells; assay type: functional
NB-4 [6] = experiment: Ratio of tamibarotene IC50 to compound IC50 for human NB4 cells; assay type: functional
K562 [7] = experiment: Ratio of tamibarotene IC50 to compound IC50 for human K562 cells; assay type: functional

Structure (SMILES)	Activity [1]	IC50 (HL-60 [2])	IC50 (K562 [4])	IC50 (NB-4 [3])	Ratio IC50 (HL-60 [5])	Ratio IC50 (NB-4 [6])	Ratio IC50 (K562 [7])
CC1(C)CCC(C)(C)c2cc(NC(=O)c3ccc(C(=O)OCCOC(=O)c4ccc(OCc5c(-c6ccccc6)no[n+]5[O-])cc4)cc3)ccc21	Active	395 µM	> 1000 µM	119 µM	–	–	–
CC1(C)CCC(C)(C)c2cc(NC(=O)c3ccc(C(=O)OCCCOC(=O)c4ccc(OCc5c(-c6ccccc6)no[n+]5[O-])cc4)cc3)ccc21	Active	185 µM	> 1000 µM	140 µM	–	–	–
CC1(C)CCC(C)(C)c2cc(NC(=O)c3ccc(C(=O)OCCCCOC(=O)c4ccc(OCc5c(-c6ccccc6)no[n+]5[O-])cc4)cc3)ccc21	Active	651 µM	> 1000 µM	952 µM	–	–	–
CC1(C)CCC(C)(C)c2cc(NC(=O)c3ccc(C(=O)OCCCCCOC(=O)c4ccc(OCc5c(-c6ccccc6)no[n+]5[O-])cc4)cc3)ccc21	Active	282 µM	> 1000 µM	240 µM	–	–	–
CC1(C)CCC(C)(C)c2cc(NC(=O)c3ccc(C(=O)OCCCCCCOC(=O)c4ccc(OCc5c(-c6ccccc6)no[n+]5[O-])cc4)cc3)ccc21	Active	486 µM	> 1000 µM	> 1000 µM	–	–	–
CC1(C)CCC(C)(C)c2cc(NC(=O)c3ccc(C(=O)NCCNC(=O)c4ccc(OCc5c(-c6ccccc6)no[n+]5[O-])cc4)cc3)ccc21	Active	1.14 µM	13.3 µM	1.93 µM	–	–	–
CC1(C)CCC(C)(C)c2cc(NC(=O)c3ccc(C(=O)O)cc3)ccc21 [TAMIBAROTENE]	–	8.94 µM	42.4 µM	4.81 µM	–	–	–

The next lines start with results.

Activity [1]	IC50 (HL-60 [2])	IC50 (K562 [4])	Structure (SMILES)	IC50 (NB-4 [3])	Ratio IC50 (HL-60 [5])	Ratio IC50 (NB-4 [6])	Ratio IC50 (K562 [7])
Active	12.3 µM	> 1000 µM	CC1(C)CCC(C)(C)c2cc(NC(=O)c3ccc(C(=O)NCCOC(=O)c4ccc(OCc5c(-c6ccccc6)no[n+]5[O-])cc4)cc3)ccc21	10.4 µM	–	–	–
Active	0.16 µM	7.12 µM	CC1(C)CCC(C)(C)c2cc(NC(=O)c3ccc(C(=O)NCC(=O)OCc4c(-c5ccccc5)no[n+]4[O-])cc3)ccc21	0.19 µM	56	25	6
Active	6.97 µM	60.4 µM	C[C@H](NC(=O)c1ccc(C(=O)Nc2ccc3c(c2)C(C)(C)CCC3(C)C)cc1)C(=O)OCc1c(-c2ccccc2)no[n+]1[O-]	5.1 µM	–	–	–
Active	5.85 µM	192 µM	CC(C)[C@H](NC(=O)c1ccc(C(=O)Nc2ccc3c(c2)C(C)(C)CCC3(C)C)cc1)C(=O)OCc1c(-c2ccccc2)no[n+]1[O-]	4.39 µM	–	–	–
Active	0.74 µM	64 µM	CC(C)C[C@H](NC(=O)c1ccc(C(=O)Nc2ccc3c(c2)C(C)(C)CCC3(C)C)cc1)C(=O)OCc1c(-c2ccccc2)no[n+]1[O-]	0.97 µM	–	–	–
Active	0.5 µM	22.6 µM	CC1(C)CCC(C)(C)c2cc(NC(=O)c3ccc(C(=O)N[C@@H](Cc4ccccc4)C(=O)OCc4c(-c5ccccc5)no[n+]4[O-])cc3)ccc21	0.75 µM	–	–	–
